Assay results from US5563130A, “Methods for inhibiting angiogenesis, proliferation of endothelial or tumor cells and tumor growth” (American Cyanamid Company, priority 1994, dated 1996).
Where a name gives a salt, the structure may show the parent alone.

Experiments:
Type in all cases: cell-based
[1] = system: A2780S; assay: Antiproliferative activity in human ovarian tumor cell line A2780S; settings: PROTOCOL 1 and PROTOCOL 2
Experimental: (§1) PROTOCOL 1, 2, and 3 are described in greater detail hereinbelow. In general, according to PROTOCOLS 1 and 2, the target ABAE and/or Human Tumor cells are exposed to the compound of Formula I for 48 hours. PROTOCOL 3 exposes ABAE cell to the compound for 4 days. A detailed description of the protocol is as follows:
(§2) Antiproliferative Activity in Human Tumor and Adult Bovine Aortic Endothelial (ABAE) Cell Lines
(§3) The antiproliferative activity of the compounds of Formula I of the present invention is evaluated in a panel comprised of human tumor cell lines and an adult bovine aortic endothelial cell line (ABAE). The human tumor cell lines are from:
(§4) All cell lines are maintained in log phase in RPMI 1640 media, supplemented with 5% fetal calf serum, penicillin/streptomycin and 2 mM L-glutamine. Cultures are renewed after 20 passages with cells from a fresh stock of batch-frozen early passage cells. Cell lines are routinely checked for mycoplasma contamination (Genprobe). In a laminar flow hood, cells (1-5×10^4) are plated into 96-well microtiter plates in a volume of 0.1 ml/well with a bulk microtiter dispenser (Denley). […] At this concentration, dimethylsulfoxide has no effect on cell growth. Compounds are added using a Tomtec dispenser which simultaneously dispenses from one 96-well plate, containing the drug dilutions, to the plates containing the cells. After two days of continuous drug exposure, 50% cold trichloroacetic acid (TCA) is added to 10% final concentration to fix the cells, and after 60 minutes at 4° C., the TCA is aspirated and the plates are washed 5 times with deionized water using a microtiter plate washer. The number of cells on the plate are quantitated using a protein dye-binding assay (Monks et al., 1991). A 0.4% solution of the dye, sulforhodamine B, in glacial acetic acid is added to the plates, and the plates are washed 5 times with 1% glacial acetic acid using the automatic plate washed. The bound stain is solubilized with 0.1 ml of 10 mM Tris base. The optical densities are read from an automatic spectrophotometric plate reader (Dynatech) directly to a main frame computer (VAX 8600).
(§5) Positive controls, that include standard chemotherapeutic drugs (i.e., adriamycin, cisplatin, etc.), are included in every experiment.
(§6) Background optical density measurements (complete media-cells, and complete media+drug-cells) are automatically subtracted from the appropriate control and test wells. Mean values and standard errors are determined from duplicate wells. A measure is also made of the optical density at time when the drugs are added. The number of cells after treatment (P), as % of control, is calculated for every concentration of drug, as follows: [formula] wherein: T is optical density measurement for treated cells after 48 hours;
(§7) C is optical density measurement for untreated cells after 48 hours;
(§8) Co is optical density measurement for cells at the time of drug addition.
(§9) IC50 of growth inhibition is calculated from the sets of P values using the RS-1 data package (BBN Software).
(§10) The antiproliferative activity of the compounds of Formula I is evaluated in a panel comprised of human tumor cell lines and an adult bovine aortic endothelial cell line (ABAE) as listed in PROTOCOL 1. This assay is a modification of PROTOCOL 1. The modifications include:
(§11) 1) each concentration for each compound is tested in a single well;
(§12) 2) compounds are tested at 20, 4, 0.8, 0.16 microgram/ml and additionally in some experiments at 100 and 0.32 microgram/ml;
(§13) 3) samples are pipetted into a 96-well plate for each of the cell lines by a Beckman Biomek 1000 SL robot;
(§14) 4) after fixing with TCA each well is washed with 0.35 ml distilled water twice, not five times;
(§15) 5) after staining with sulforhodamine B each well is washed 3 times, not five times; […]

[2] = system: A2780/DDP; assay: Antiproliferative activity in human ovarian tumor cell line A2780/DDP; settings: PROTOCOL 1 and PROTOCOL 2
Experimental: as §1, §2, §3, §4, §5, §6, §7, §8, §9, §10, §11, §12, §13, §14, §15

[3] = system: MIP; assay: Antiproliferative activity in human colon tumor cell line MIP; settings: PROTOCOL 1 and PROTOCOL 2
Experimental: as §1, §2, §3
(§16) 2) Colon tumors: MIP, CaCo2, and SW620.
as §4, §5, §6, §7, §8, §9, §10, §11, §12, §13, §14, §15

[4] = system: HTB 16; assay: Antiproliferative activity in human tumor cell line HTB 16; settings: ovarian tumor line; PROTOCOL 1 and PROTOCOL 2
Experimental: as §1, §2, §3, §4, §5, §6, §7, §8, §9, §10, §11, §12, §13, §14, §15

[5] = system: SW620; assay: Antiproliferative activity in human colon tumor cell line SW620; settings: PROTOCOL 1 and PROTOCOL 2
Experimental: as §1, §2, §3, §16, §4, §5, §6, §7, §8, §9, §10, §11, §12, §13, §14, §15

[6] = system: Human Tumor Cell lines; assay: Antiproliferative activity in panel of human tumor cell lines; settings: average over the tested human tumor cell lines
Experimental: as §1, §2, §3, §16, §4, §5, §6, §7, §8, §9, §10, §11, §12, §13, §14, §15

[7] = system: Adult Bovine Aortic Endothelial (ABAE) cell line; assay: Antiproliferative activity in ABAE cells, PROTOCOL 1 (48 h, SRB)
Experimental: PROTOCOL 1, 2, and 3 are described in greater detail hereinbelow. In general, according to PROTOCOLS 1 and 2, the target ABAE and/or Human Tumor cells are exposed to the compound of Formula I for 48 hours. PROTOCOL 3 exposes ABAE cell to the compound for 4 days. A detailed description of the protocol is as follows: Antiproliferative Activity in Human Tumor and Adult Bovine Aortic Endothelial (ABAE) Cell Lines The antiproliferative activity of the compounds of Formula I of the present invention is evaluated in a panel comprised of human tumor cell lines and an adult bovine aortic endothelial cell line (ABAE). […] The number of cells on the plate are quantitated using a protein dye-binding assay (Monks et al., 1991). […] The optical densities are read from an automatic spectrophotometric plate reader (Dynatech) directly to a main frame computer (VAX 8600). […] Mean values and standard errors are determined from duplicate wells. […] The number of cells after treatment (P), as % of control, is calculated for every concentration of drug, as follows: [formula] wherein: T is optical density measurement for treated cells after 48 hours; C is optical density measurement for untreated cells after 48 hours; Co is optical density measurement for cells at the time of drug addition. IC50 of growth inhibition is calculated from the sets of P values using the RS-1 data package (BBN Software). […]

[8] = system: Adult Bovine Aortic Endothelial (ABAE) cell line; assay: Antiproliferative activity in ABAE cells, PROTOCOL 2 (48 h, SRB, single well)
Experimental: as §1, §2, §10, §11, §12, §13, §14
5) after staining with sulforhodamine B each well is washed 3 times, not five times;
6) the growth inhibition (I) as % of control, is calculated using the RS-1 data package (BBN Software), for every concentration of drug, as follows: [formula] wherein: T is optical density measurement for treated cells after 48 hours;
as §7
7) IC50 of growth inhibition is determined from graphically from dose response curves, as is known in the art.
Table 1 presents the results depicting the antiproliferative activity of the compounds of Formula I against an Adult Bovine Aortic Endothelial (ABAE) cell line, as evaluated by PROTOCOL 1 and PROTOCOL 2. The results are presented in terms of IC50 and are as follows.

[9] = system: Adult Bovine Aortic Endothelial (ABAE) cell line; assay: Antiproliferative activity in ABAE cells, PROTOCOL 3 (4 days, cell count); settings: PROTOCOL 3, FIG. 1
Experimental: as §1
Antiproliferative Activity in Adult Bovine Aortic Endothelial (ABAE) Cell Line
ABAE cells are grown in DMEM media (Mediatech, Washington, D.C.) supplemented with 10% calf serum (Hyclone). ABAE cells are plated in 24-well dishes at 8,000 cells/well, followed by the addition of increasing concentrations of 7-[substituted amino]-9-[(substituted glycyl)amido]-6-demethyl-6-deoxytetracyclines. After four days, the cells are detached and counted. […] The growth inhibition (I) as % of control is calculated as follows: [formula] wherein: Nc is the number of cells in untreated wells;
Nt is the number of cells in treated wells;
No is the number of plated cells.
IC50 of growth inhibition is determined from the sets of I values plotted by Kaleidograph software (Abelbeck Software).
In addition FIG. 1, presents the dose response curve of the compound of Example 6 for the above ABAE cell line obtained by PROTOCOL 3.

Compound	A2780S IC50 [1] [µg/mL]	A2780/DDP IC50 [2] [µg/mL]	MIP IC50 [3] [µg/mL]	HTB 16 IC50 [4] [µg/mL]	SW620 IC50 [5] [µg/mL]	AVERAGE IC50 FOR TUMOR CELL LINES [6] [µg/mL]	IC50 PROTOCOL 1 [7] [µg/mL]	IC50 PROTOCOL 2 ([8]; ABAE cells, 48 h, PROTOCOL 2) [µg/mL]	activity in preventing proliferation of ABAE cells compared to Minocycline ([8]; Table 1)	inhibits 50% of cell growth [9]
CN(C)[C@@H]1C(O)=C(C(N)=O)C(=O)[C@@]2(O)C(O)=C3C(=O)c4c(ccc(NC(=O)CN5CCCCC5)c4O)CC3CC12 (stereo partly drawn) [Example 3, [7S-(7alpha,10aalpha)]-N-9-(Aminocarbonyl)-7-(dimethylamino)-5,5a,6,6a,7,10,10a,12-octahydro-1,8,10a,11-tetrahydroxy-10,12-dioxo-1-piperidineacetamidedihydrochloride]	2.5	2.7	3.0	2.3	2.8	2.7				
CCCNCC(=O)Nc1ccc2c(c1O)C(=O)C1=C(O)[C@]3(O)C(=O)C(C(N)=O)=C(O)[C@@H](N(C)C)C3CC1C2.Cl.Cl (stereo partly shown) [Example 4]	3.2	3.1	3.4	3.2	1.3	2.85	5.2			
CN(C)[C@@H]1C(O)=C(C(N)=O)C(=O)[C@@]2(O)C(O)=C3C(=O)c4c(ccc(NC(=O)CN5CCCC5)c4O)CC3CC12.Cl.Cl (stereo partly shown) [Example 5]	2.5	2.7	3.0	2.3	2.8	2.7				
CCCCNCC(=O)Nc1ccc2c(c1O)C(=O)C1=C(O)[C@]3(O)C(=O)C(C(N)=O)=C(O)[C@@H](N(C)C)C3CC1C2.Cl (stereo partly drawn) [Example 6, [4S-(4alpha,12aalpha)]-9-[[(Butylamino)acetyl]amino]-4-(dimethylamino)-1,4,4a,5,5a,6,11,12a-octahydro-3,10,12,12a-tetrahydroxy-1,11-dioxo-2-naphthacenecarboxamide monohydrochloride]	3.4	3.3	3.4	2.9	3.2	3.2		4	extraordinary activity in preventing the proliferation of ABAE cells as compared to the prior art compound, Minocycline	approximately 3 μg/ml
CN(C)[C@@H]1C(O)=C(C(N)=O)C(=O)[C@@]2(O)C(O)=C3C(=O)c4c(ccc(NC(=O)CNCC5CC5)c4O)CC3CC12.Cl.Cl (stereo partly drawn) [Example 7, [4S-(4alpha,12aalpha)]-9-[[[(Cyclopropylmethyl)amino)acetyl]amino]-4-(dimethylamino)-1,4,4a,5,5a,6,11,12a-octahydro-3,10,12,12a-tetrahydroxy-1,11-dioxo-2-naphthacenecarboxamide dihydrochloride]	4.9	3.9	6.3	3.3	3.9	4.5				
CN(C)CC(=O)Nc1ccc2c(c1O)C(=O)C1=C(O)[C@]3(O)C(=O)C(C(N)=O)=C(O)[C@@H](N(C)C)C3CC1C2.Cl.Cl (stereo partly drawn) [Example 8, [4S-(4alpha,121aalpha)]-9-[[(Dimethylamino)acetyl]-amino]-4-(dimethylamino)-1,4,4a,5,5a,6,11,12a-octahydro-3,10,12,12a-tetrahydroxy-1,11-dioxo-2-naphthacenecarboxamide dihydrochloride]	4.8	5.8	6.0	4.1	5.0	5.1				
CC(C)CNCC(=O)Nc1ccc2c(c1O)C(=O)C1=C(O)[C@]3(O)C(=O)C(C(N)=O)=C(O)[C@@H](N(C)C)C3CC1C2.Cl.Cl (stereo partly drawn) [Example 9, [b 4S-(4alpha,12aalpha)]-4-(Dimethylamino)-1,4,4a,5,5a,-6,11,12a-octahydro-3,10,12,12a-tetrahydroxy-9-[[[(2-methylpropyl)amino]acetyl]amino]-1,11-dioxo-2-naphthacenecarboxamide dihydrochloride]	3.5	7.7	5.75	5.0	5.7	5.5				
